Results taken from ChEMBL document CHEMBL3112502, “The insulin secretory action of novel polycyclic guanidines: discovery through open innovation phenotypic screening, and exploration of structure-activity relationships” (Bioorg Med Chem Lett, 2014).
Activity calls are given as the source filed them. No cut-off for these calls is given here.

Legend:
[1] = (§1) Stimulation of insulin secretion in rat INS-1E cells after 1 hr by alphaLISA assay in presence of 0.1 mM glucose; format: functional, cell-based
[2] = Stimulation of insulin secretion in rat INS-1E cells after 1 hr by alphaLISA assay in presence of 5 mM glucose relative to IBMX; format: functional
[3] = Stimulation of insulin secretion in rat INS-1E cells after 1 hr by alphaLISA assay in presence of 5 mM glucose; format: functional, cell-based
INS-1E = assay: as §1; format: functional, cell-based
Pancreatic islet [4] = assay: Stimulation of insulin secretion in rat pancreatic islets in presence of 11 mM glucose; format: functional
Pancreatic islet [5] = assay: Stimulation of insulin secretion in rat pancreatic islets at 3 uM in presence of 11 mM glucose; format: functional
Pancreatic islet [6] = assay: Stimulation of insulin secretion in rat pancreatic islets at 3 uM in presence of 3 mM glucose; format: functional
[7] = Stimulation of insulin secretion in rat INS-1E cells after 1 hr by alphaLISA assay in presence of 0.1 mM glucose relative to IBMX; format: functional

Row | Compound | Emax [2] [%] | EC50 [3] [µM] | Activity (INS-1E) | further results
1 | N=C1N[C@@H](c2ccccc2)C[C@H]2CC[C@H](CCc3ccccc3)N12 | 34 | 1.25 |  | EC50 [1]: > 33 µM
2 | N=C1N[C@@H](c2cccc(Br)c2)C[C@H]2CC[C@H](CCc3ccccc3)N12 | 22 | 1.01 | inactive | 
3 | N=C1N[C@@H](c2ccccc2)C[C@H]2CC[C@H](COc3ccccc3)N12 |  | > 33 | inactive | 
4 | N=C(N)N1C(CCc2ccccc2)CCC1Cc1ccccc1 (mixture of isomers) | 56 | 5.74 | inactive | 
5 | N=C1N[C@@H](c2ccc(C(F)(F)F)cc2)C[C@H]2CC[C@H](CCc3ccccc3)N12 |  | > 33 | inactive | 
6 | N=C1NC(c2ccccc2)CCN1CCCc1ccccc1 (centres undefined) | 39 | 4.79 | inactive | 
7 | N=C(N)N1C(CCc2ccccc2)CCC1Sc1ccccc1 (centres undefined) | 62 | 1.33 | inactive | 
8 | O=C1N[C@@H](c2ccccc2)C[C@H]2CC[C@H](CCc3ccccc3)N12 |  | > 33 | inactive | 
9 | C[C@@H]1[C@H]2CC[C@H](CCc3ccccc3)N2C(=N)N[C@H]1c1ccccc1 | 27 | 1.3 |  | EC50 [1]: > 33 µM; Activity (Pancreatic islet [4]): Active
10 | N=C1N[C@@H](c2ccccc2)C[C@H]2CC[C@H](c3ccccc3)N12 |  | > 33 | inactive | 
11 | N=C1N[C@@H](c2ccccc2)C[C@H]2CC[C@H](CCCc3ccccc3)N12 (mixture of isomers) | 31 | 0.83 | inactive | 
12 | CC(=O)Nc1ccc([C@H]2C[C@H]3CC[C@H](CCc4ccccc4)N3C(=N)N2)cc1 |  | > 33 | inactive | 
13 | N=C1N[C@@H](C2CCCCC2)C[C@H]2CC[C@H](CCc3ccccc3)N12 | 40 | 0.75 | inactive | 
14 | C/C=C/[C@H]1C[C@H]2CC[C@H](CCc3ccccc3)N2C(=N)N1 | 21 | 1.45 |  | EC50 [1]: > 33 µM
15 | Cc1cc(C)c(Nc2cccc(CC[C@H]3CC[C@@H]4C[C@H](c5ccccc5)NC(=N)N34)c2)c(C)c1 |  | > 33 | inactive | 
16 | N=C1N[C@@H](c2ccccc2)C[C@H]2CC[C@H](c3ccc(-c4ccccc4)cc3)N12 |  | > 33 | inactive | 
17 | Cc1ccc([C@H]2C[C@H]3CC[C@H](CCc4ccccc4)N3C(=N)N2)cc1 (mixture of isomers) | 40 | 1 | inactive | 
18 | N=C1N[C@@H](c2ccccc2Br)C[C@H]2CC[C@H](CCc3ccccc3)N12 (mixture of isomers) | 52 | 0.67 | inactive | 
19 | N=C1N[C@@H](c2ccc(Br)cc2)C[C@H]2CC[C@H](CCc3ccccc3)N12 | 23 | 0.63 | inactive | 
20 | Cn1cc(CC[C@H]2CC[C@@H]3C[C@H](c4ccccc4)NC(=N)N23)cn1 |  | > 33 | inactive | 

Row | Compound | Emax [2] [%] | EC50 [3] [µM] | Activity (INS-1E) | further results
21 | Cc1cc(C)c(Nc2ccc(CC[C@H]3CC[C@@H]4C[C@H](c5ccccc5)NC(=N)N34)cc2)c(C)c1 |  | > 33 | inactive | 
22 | Cc1cc(C)c(Nc2ccccc2CC[C@H]2CC[C@@H]3C[C@H](c4ccccc4)NC(=N)N23)c(C)c1 | 54 | 1.37 | inactive | 
23 | CC(C)(C)OC(=O)/N=C1\N[C@@H](c2ccccc2)C[C@H]2CC[C@H](CCc3ccccc3)N12 |  | > 33 | inactive | 
24 | Cc1cccc([C@H]2C[C@H]3CC[C@H](CCc4ccccc4)N3C(=N)N2)c1 (mixture of isomers) | 20 | 1.1 | inactive | 
25 | N=C(N)N1C(Sc2ccccc2)CCC1c1ccccc1 (mixture of isomers) | 54 | 5.03 | inactive | 
26 | N=C1N[C@H](c2ccccc2)C[C@H]2CC[C@H](CCc3ccccc3)N12 | 21 | 2.74 |  | 
27 | N=C1N[C@@H](c2ccccc2)C[C@H]2CCCN12 (mixture of isomers) |  | > 33 | inactive | 
28 | N=C1NCC[C@H]2CC[C@H](CCc3ccccc3)N12 |  | > 33 | inactive | 
29 | N=C(N)N1C(CCc2ccccc2)CCC1CCc1ccccc1 (mixture of isomers) | 29 | 4.87 | inactive | 
30 | N=C1N[C@@H](c2ccc(C(=O)O)cc2)C[C@H]2CC[C@H](CCc3ccccc3)N12 |  | > 33 | inactive | 
31 | Cc1ccccc1[C@H]1C[C@H]2CC[C@H](CCc3ccccc3)N2C(=N)N1 | 59 | 1.01 | inactive | Activity (Pancreatic islet [5]): Active; Activity (Pancreatic islet [6]): inactive
32 | COc1ccc(Cl)cc1C(=O)NCCc1ccc(S(=O)(=O)NC(=O)NC2CCCCC2)cc1 [GLYBURIDE] | 50 | 0.003 |  | EC50 [1]: 0.007 µM; Emax [7]: 17%
33 | N=C1N[C@@H](c2ccc(F)cc2)C[C@H]2CC[C@H](CCc3ccccc3)N12 | 26 | 4.04 | inactive | 
34 | CN1C(=N)N2[C@@H](CCc3ccccc3)CC[C@@H]2C[C@@H]1c1ccccc1 | 29 | 0.67 | inactive | 
35 | N=C1N[C@@H](c2ccccc2)C[C@H]2CC[C@H](Cc3ccccc3)N12 | 52 | 4.74 | inactive | 
36 | N=C1N[C@@H](c2ccccc2)C[C@H]2CC[C@H](CCc3cccc(Br)c3)N12 | 26 | 0.45 | inactive | 
37 | CCC[C@H]1CC[C@@H]2C[C@H](c3ccccc3)NC(=N)N12 | 55 | 11.1 | inactive | 
38 | N=C(NCc1ccccc1)N1CCCC1CCc1ccccc1 (centres undefined) | 84 | 2.47 | inactive | 
39 | COc1cccc([C@H]2C[C@H]3CC[C@H](CCc4ccccc4)N3C(=N)N2)c1 (mixture of isomers) | 21 | 0.76 | inactive | 
40 | N=C1N[C@@H](c2ccccc2)C[C@H]2CC[C@H](CCc3ccncc3)N12 |  | > 33 | inactive | 
